These are literature values, as cited in patent US20260256788A1, “COMPOSITIONS COMPRISING MELATONIN, 5-FLUOROURACIL AND DIMETHYL SULFOXIDE FOR USE IN THE TREATMENT OF ACTINIC KERATOSIS” (RepoCeuticals A/S, priority 2023, published 2026).

Assay in data set [1]: not given
The source holds these as a separate data set.

On to `COc1ccc2[nH]cc(CCNC(C)=O)c2c1` [melatonin, N-acetyl-5-methoxytryptamine], for which the “solubility of melatonin in DMSO” value (in DMSO at room temperature) was ≥ 232 mg/mL.

For the compound `O=c1[nH]cc(F)c(=O)[nH]1` [5-FU, 5-fluoro-2,4(1H;3H)-pyrimidinedione], the “solubility in DMSO” value (in DMSO) is listed as “very soluble”. The “solubility in water” value in data set [1] is “only sparingly soluble”.
